Assay results: patent publication US20060003988A1, “Compounds capable of inhibiting immunocyte-related allergic immune reactions” (priority 2002, published 2006)
Where a name gives a salt, the structure may show the parent alone.

What was measured:
[1] = tested on: IL-2 production from peripheral blood T cells; assay: IL-2 production from peripheral blood T cells (ELISA); format: cell-based, human; conditions: each costimulation condition; 24 hours; up to maximum concentration (10 μM ebastine, 100 μM carebastine)
Experimental: (§1) In order to analyze whether or not H1 blockers have an inhibitory effect on cytokine production induced by the various costimulations described above, the present inventors measured Th1 type cytokines (IL-2, and IFN-γ) in the culture supernatant induced by the various costimulations described above.
(§2) The antibody-coated plates and T cells were prepared similarly as in Example 1 except that the OKT3 concentration was 0.5 μg/ml. The cytokine production by T cells was analyzed in triplicate using 96-well flat-bottomed plates by the same method employed in the T cell proliferation analysis described above. After culturing for 24 hours, the culture supernatant was tested using ELISA kit (IL-2: Biosource International, Camarillo, Calif.; IFN-γ: R&D systems, Minneapolis, Minn.) to quantify IL-2 and IFN-γ.

[2] = tested on: IFN-γ production from peripheral blood T cells; assay: IFN-γ production from peripheral blood T cells (ELISA); format: cell-based, human; conditions: each costimulation condition; 24 hours; ebastine 0.1 μM to 10 μM, carebastine 1 μM to 100 μM
Experimental: as §1, §2

[3] = tested on: IL-4 production from peripheral blood T cells; assay: IL-4 production from peripheral blood T cells (ELISA); format: cell-based, human
Experimental: as §2
(§3) Th2 type CD4 T cells play an important role in allergic diseases. […] This analysis was performed similarly as in Example 2 except that ELISA (IL-4: Biosource International, Camarillo, Calif.; IL-5: R&D systems, Minneapolis, Minn.) was used to quantify IL-4 and IL-5.

[4] = tested on: IL-5 production from peripheral blood T cells; assay: IL-5 production from peripheral blood T cells (ELISA); format: cell-based, human; conditions: for effect on IL-5 production: each costimulation condition, concentration-dependent
Experimental: as §2, §3

[5] = tested on: IL-6 production from peripheral blood T cells; assay: IL-6 production from peripheral blood T cells (ELISA); format: cell-based, human; conditions: for effect on IL-6 production from T cells: each costimulation condition
Experimental: as §2
(§4) The present inventors analyzed the effects of H1 blockers on the production of inflammatory cytokines, such as IL-6 and TNF-α, from T cells due to the various costimulation pathways described above. This analysis was performed similarly as in Example 2 above except for the use of an ELISA kit for measuring IL-6 and TNF-α (R&D systems, Minneapolis, Minn.).

[6] = tested on: TNF-α production from peripheral blood T cells; assay: TNF-α production from peripheral blood T cells (ELISA); format: cell-based, human; conditions: for effect on TNF-α production from T cells: each costimulation condition
Experimental: as §2, §4

[7] = tested on: PHA-stimulated T cells; assay: Transendothelial migration of PHA-stimulated T cells through ECV304 monolayer; format: cell-based, human; conditions: compound present during migration, eight hours
Experimental: Since fresh resting-stage T cells hardly migrate by permeating a monolayer of endothelial cells, these T cells were activated using PHA (10 μg/ml) prior to performing transendothelial migration analysis.
Specifically, the analysis of transendothelial migration was performed by slightly modifying a known method (Iwata S, Yamaguchi N, Munakata Y, Ikushima H, Lee J F, Hosono O, Schlossman S F, Morimoto C. “CD26/DPPIV differentially regulates the chemotaxis of T cells and monocytes toward RANTES. Possible mechanism for the switch from innate to acquired immune response.” Int Immunol. 11:417-426, 1999). Human endothelial cell strain ECV304 was obtained from the American Tissue Culture Collection (ATCC; Rockville, Md.) and cultured for 48 hours on Transwell cell culture inserts (Corning Costar, Cambridge, Mass.) with a pore size of 3.0 μm. The cells were loaded onto a 24-well plastic plate for cell culture (FALCON), and mixed with H1 blockers at various concentrations using Transwell assay medium (RPMI1640 medium, BSA 0.6%, Penicillin G/Streptomycin 1%, HEPES 50 mM). Two-hundred μl of PHA-stimulated T cells (1×10^7/ml) were then placed in the upper chamber and 600 μl of assay medium was placed in the lower chamber, and migration was performed for eight hours at 37° C. under 5% CO2. After recovery of the cells, the number of cells was counted for one minute by flow cytometry (FACSCalibur, Nippon Becton-Dickinson, Tokyo, Japan).

[8] = tested on: IL-6 production from macrophages; assay: IL-6 production from macrophages upon LPS stimulation (ELISA); format: cell-based, human
Excerpt: (§5) Specifically, in order to produce IL-6 and THF-α from macrophages, peripheral blood mononuclear cells were adhered to a plastic plate to isolate and recover macrophages.

[9] = tested on: TNF-α production from macrophages; assay: TNF-α production from macrophages upon LPS stimulation (ELISA); format: cell-based, human
Excerpt: as §5

[10] = in vivo; cited from earlier work
[11] = tested on: histamine-induced contraction in trachea samples; conditions: trachea samples excised from guinea pigs; read-out: IC50 of the effects on histamine-induced contraction; cited from earlier work
[12] = dose increased to five times from that used for the treatment; cited from earlier work
[13] = tested on: PHA-stimulated T cells; assay: Adhesion of PHA-stimulated T cells to endothelial cells (fluorescence microscopy); conditions: 1.0 μM to 5.0 μM; six hours; dose-dependent
Excerpt: After six hours, the culture dish was washed three times with PBS.

[14] = molecular target: T1, H2 receptors (Homo sapiens, UniProt P25021); conditions: read-out: IC50 in the inhibition of ligand binding to H2 receptors; cited from earlier work
[15] = molecular target: human recombinant H1 receptors (Homo sapiens, UniProt P35367); conditions: read-out: IC50 of inhibiting ligand binding to H1 receptors; cited from earlier work
[16] = according to the Interview Form; cited from earlier work
[17] = tested on: T cells; assay: T cell proliferation (3H-thymidine incorporation) via different costimulation pathways; format: cell-based, human; conditions: stimulation on CD3 combined with CD26, CD28 or PMA; all concentrations used
Experimental: The first pathway was PMA, the second pathway stimulation on CD28 that is one of the representative T cell costimulation molecules, and the third pathway stimulation on CD26 that is expressed on CD4^+ memory T cells. The simulation on CD3 was applied together with all of these stimulations. The stimulation on CD3, CD26, and CD28 was performed using monoclonal antibodies OKT3, 1F7 (Morimoto C et al., 1989, supra), and 4B10 (immi CD et al., 1991, supra), respectively. OKT3 was purchased from the American Tissue Culture Collection (ATCC, Rockville, Md.), while 4B10 and 1F7 were purified from mouse ascites of hybridomas established in the present inventors' laboratory (Gimmi C D et al., 1991, supra; Morimoto C et al., 1989, supra). […]
Phosphate-buffer saline (PBS) (100 μl) containing either one of the monoclonal antibodies, OKT3 (0.05 μg/ml), 1F7 (1 μg/ml), or 4B10 (2 μg/ml), was coated in triplicate according to a known method (Dang N H et al., 1990, supra) on flat-bottomed 96-well plates (Coster, Cambridge, Mass.), and the plates were then incubated overnight at 4° C. […] The cells were stimulated for eight hours with 1 μCi ^3H-thymidine (ICN Radiochemicals, Irvine, Calif.) per well, recovered on a glass fiber filter (Wallac, Turku, Finland) to quantify the incorporated radioactivity with a liquid scintillation counter (Wallac).

[18] = molecular target: T1, H2 receptors; conditions: at maximum concentration; cited from earlier work
[19] = each costimulation condition, concentration-dependent

T1 sequence (P25021 whole entry): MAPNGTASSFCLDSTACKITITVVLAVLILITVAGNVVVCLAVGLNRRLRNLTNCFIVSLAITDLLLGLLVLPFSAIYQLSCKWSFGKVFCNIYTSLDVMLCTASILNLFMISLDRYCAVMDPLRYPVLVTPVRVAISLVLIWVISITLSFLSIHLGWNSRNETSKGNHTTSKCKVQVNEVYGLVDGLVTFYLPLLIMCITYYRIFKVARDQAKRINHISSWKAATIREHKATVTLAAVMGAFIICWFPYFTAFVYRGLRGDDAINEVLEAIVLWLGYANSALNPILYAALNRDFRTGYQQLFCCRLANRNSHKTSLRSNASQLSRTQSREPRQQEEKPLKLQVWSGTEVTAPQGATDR
Chain of human recombinant H1 receptors (P35367 whole entry): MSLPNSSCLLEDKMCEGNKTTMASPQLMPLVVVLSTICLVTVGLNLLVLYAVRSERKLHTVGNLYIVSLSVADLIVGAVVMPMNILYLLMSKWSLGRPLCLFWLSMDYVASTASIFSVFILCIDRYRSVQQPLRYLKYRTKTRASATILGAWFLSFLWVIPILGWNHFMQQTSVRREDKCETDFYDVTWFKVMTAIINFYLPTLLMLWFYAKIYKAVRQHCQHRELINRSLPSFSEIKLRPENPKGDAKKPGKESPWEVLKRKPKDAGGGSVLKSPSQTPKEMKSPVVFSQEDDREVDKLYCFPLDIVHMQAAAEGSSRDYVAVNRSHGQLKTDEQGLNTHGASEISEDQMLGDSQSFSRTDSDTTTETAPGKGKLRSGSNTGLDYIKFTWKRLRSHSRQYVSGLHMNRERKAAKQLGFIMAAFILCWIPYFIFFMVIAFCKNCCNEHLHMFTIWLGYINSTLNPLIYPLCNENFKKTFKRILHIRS

CC(C)(C(=O)O)c1ccc(C(=O)CCCN2CCC(OC(c3ccccc3)c3ccccc3)CC2)cc1 [carebastine, 4-[4-[4-(di-phenylmethoxy)-1-piperidinyl]-1-oxobutyl]-α, α-di-methylbenzeneacetic acid]
effect on IL-2 production [1]: did not inhibit | effect on IFN-γ production [2]: did not have a clear effect | effect on IL-4 production [3, 19]: inhibited | effect on IL-5 production [4]: inhibited | effect on IL-6 production from T cells [5]: inhibited | effect on TNF-α production from T cells [6]: inhibited | effect on T cell migration [7]: suppressed | effect on IL-6 production from macrophages ([8]; eight hours): suppressed | effect on TNF-α production from macrophages ([9]; eight hours): suppressed | maximum blood concentration [10]: 0.1 µM | IC50 [11]: 120 nM

O=C(O)COCCN1CCN(C(c2ccccc2)c2ccc(Cl)cc2)CC1 (centres unmarked) [cetirizine hydrochloride]
effect on IL-2 production [1]: did not have a clear effect | effect on IFN-γ production [2]: did not have a clear effect | effect on IL-4 production [3, 19]: did not have a clear effect | effect on IL-5 production [4]: did not have a clear effect | effect on IL-6 production from T cells [5]: did not have a clear effect | effect on TNF-α production from T cells [6]: did not have a clear effect | effect on IL-6 production from macrophages ([8]; eight hours): no inhibition | effect on TNF-α production from macrophages ([9]; eight hours): no inhibition

CC(C)(C)c1ccc(C(=O)CCCN2CCC(OC(c3ccccc3)c3ccccc3)CC2)cc1 [ebastine, 4-diphenylmethoxy-1[3-(4-terbutyl-benzoyl)-propyl]piperidine]
effect on IL-2 production [1]: did not inhibit | effect on IFN-γ production [2]: did not have a clear effect | effect on IL-4 production ([3]; 10 μM): nearly completely inhibited | suppression of IL-4 production ([3]; 20 μM, all donors): 100% | effect on IL-4 production [3, 19]: inhibited | suppression of IL-5 production ([4]; 20 μM, all donors): 100% | effect on IL-5 production [4]: inhibited | suppression of IL-6 production from T cells ([5]; 10 μM to 20 μM): 100% | effect on IL-6 production from T cells [5]: inhibited | suppression of TNF-α production from T cells ([6]; 10 μM to 20 μM): 100% | effect on TNF-α production from T cells [6]: inhibited | suppression of IL-6 production from macrophages ([8]; 1 μM): ≥ 50% | effect on IL-6 production from macrophages ([8]; 10 μM): nearly completely inhibited | effect on IL-6 production from macrophages ([8]; eight hours): suppressed | suppression of TNF-α production from macrophages ([9]; 1 μM): ≥ 50% | effect on TNF-α production from macrophages ([9]; 10 μM): nearly completely inhibited | effect on TNF-α production from macrophages ([9]; eight hours): suppressed | effect on QT interval [12]: not to affect | adhesion of PHA-stimulated T cells to endothelial cells [13]: suppress

NC1=NCC2c3ccccc3Cc3ccccc3N12 (centres unmarked) [epinastine hydrochloride, 3-amino-9,13b-dihydro-1H-dibenz(c,f)imidazol(1,5-a)azepine hydro-chloride]
effect on IL-2 production [1]: suppressed | effect on IFN-γ production [2]: suppressed | effect on IL-4 production [3, 19]: inhibited | effect on IL-5 production [4]: inhibited | effect on IL-6 production from T cells [5]: no clear effect | effect on TNF-α production from T cells [6]: no clear effect | effect on T cell migration [7]: did not have a clear effect | effect on IL-6 production from macrophages ([8]; eight hours): no inhibition | effect on TNF-α production from macrophages ([9]; eight hours): no inhibition | maximum blood concentration [10]: 0.1 µM | IC50 [14]: 640 ± 62 nM | IC50 [15]: 1.1 ± 0.16 nM | efficacy in the improvement of bronchial asthma to a medium degree or greater [16]: 47.0%

CN1CCC(=C2c3ccccc3CC(=O)c3sccc32)CC1 [ketotifen fumarate]
effect on T cell proliferation [17]: hardly inhibited | effect on IL-2 production [1]: did not have a clear effect | effect on IFN-γ production [2]: did not have a clear effect | effect on IL-4 production [3, 19]: did not have a clear effect | effect on IL-5 production [4]: did not have a clear effect | effect on IL-6 production from T cells [5]: did not have a clear effect | effect on TNF-α production from T cells [6]: did not have a clear effect | effect on T cell migration [7]: did not have a clear effect | effect on IL-6 production from macrophages ([8]; eight hours): no inhibition | effect on TNF-α production from macrophages ([9]; eight hours): no inhibition | maximum blood concentration [10]: 0.01 µM | IC50 [11]: 2.5 nM | IC50 [14]: 2200 ± 450 nM

CC(C)(C)c1ccc(C(O)CCCN2CCC(C(O)(c3ccccc3)c3ccccc3)CC2)cc1 (centres unmarked) [terfenadine]
inhibition rate to [3H]-tiotidine [18]: 29%
